This is an account of results in US20180118718A1, “Substituted Quinoxaline Derivatives” (Selvita S.A., priority 2015, published 2018).

The test addresses T1, Human recombinant His-tagged PFKFB3 (Homo sapiens, UniProt Q16875).
T1 construct: His; made in house
Put plainly: PFKFB3 IC50 Determination Assay (in vitro kinase assay, modified ADP-Glo system). The class given is biochemical. To be noted: ATP 20 μM and fructose-6-phosphate 2 μM (Km), 25 nM PFKFB3, 2 h, rt, ADP-Glo luminescence. Here is the method:
PFKFB3 IC50 Determination Assay
In vitro kinase assay used to determine IC50 values for tested inhibitors is based on a modified ADP-Glo™ system (Promega) and consists of two parts:
1. Kinase reaction—performed in optimized conditions. At this step PFKFB3 phosphorylates its substrate Fructose-6-phosphate using ATP as a source of phosphate to produce Fructose-2,6-bisphosphate and ADP. Reaction is performed at Km values for ATP and substrate using optimized buffer composition and time of the reaction. Human recombinant His-tagged PFKFB3 (PFKFB3 BATCH II SEC) with confirmed activity is produced and purified in-house. 2. Detection of ADP as a product of the reaction using ADP-Glo™ system. This part is conducted by using the commercially available kit ADP-Glo™ Kinase Assay (Promega, cat. No# V9103) according to manufacturer's instruction, modified by 5x dilutions of assay reagents (both ADP-Glo™ Reagent and Kinase Detection Solution).
Test compounds are dissolved in DMSO and then transferred to the V-bottom 96-well plate.
15 μL per well of Mix 1 is transferred to assay wells of 96-well white plate. […] Total reaction volume is 30 μL per well. Samples are tested in duplicates. Final concentration of DMSO in the reaction is 6.7%. Conditions needed for performing PFKFB3 (PFKFB3 BATCH II SEC) in vitro kinase assay are given below:
This protocol is based on Technical Bulletin, ADP-Glo™ Kinase Assay (Promega) and is adapted to 96-well plate containing 30 μL reaction mixture:
30 μL of 5x diluted ADP-Glo™ Reagent is added to each well of 96-well plate containing 30 μL of reaction mixture. The plate is incubated for 90 minutes on a shaker at RT. 60 μL of 5x diluted Kinase Detection Solution is added to each well of 96-well plate containing 60 μL of the solution (ratio of kinase reaction volume to ADP-Glo™ Reagent volume to Kinase Detection Solution volume is maintained at 1:1:2). Plate is incubated for 40 minutes on a shaker at RT, protected from light. Luminescence is measured in the plate reader Synergy 2 (BioTek).
Luminescent readouts for compounds tested in 10 concentrations (routinely from 100 μM to […], […] serial dilutions) in duplicates, as well as for positive control, are first normalized to no-substrate negative control by its subtraction. In the next step, % of normalized positive control is calculated for each data point and plotted against test compound concentration:
% of control percent of positive control normalized to no-substrate negative control Lumcpd luminescence of test compound Lumneg luminescence of no-substrate negative control Lumpos luminescence of positive control
IC50 parameter is determined by the GraphPad Prism 5.0 software [log(inhibitor) vs. response −Variable slope (four parameters)].
(In ADP-Glo the light output rises with the ADP produced.)

T1 sequence (Q16875 whole entry): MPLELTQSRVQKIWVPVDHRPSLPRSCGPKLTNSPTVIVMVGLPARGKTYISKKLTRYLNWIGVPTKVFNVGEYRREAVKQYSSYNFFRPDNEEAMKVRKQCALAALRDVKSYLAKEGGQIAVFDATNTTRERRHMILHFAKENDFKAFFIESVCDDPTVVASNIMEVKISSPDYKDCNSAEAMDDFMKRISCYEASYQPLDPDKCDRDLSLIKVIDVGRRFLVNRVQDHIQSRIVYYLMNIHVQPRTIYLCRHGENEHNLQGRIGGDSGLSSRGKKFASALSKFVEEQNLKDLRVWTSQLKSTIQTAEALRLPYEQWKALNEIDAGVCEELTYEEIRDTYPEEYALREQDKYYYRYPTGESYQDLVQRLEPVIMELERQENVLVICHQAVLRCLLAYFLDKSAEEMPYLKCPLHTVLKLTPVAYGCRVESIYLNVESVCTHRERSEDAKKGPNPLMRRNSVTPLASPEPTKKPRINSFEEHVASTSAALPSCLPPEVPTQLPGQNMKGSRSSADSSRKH

What is called IC50 is the point on the concentration scale where inhibition reaches its midpoint. In the case of `CS(=O)(=O)c1ccncc1Nc1cc(-c2cccc(-c3cn[nH]n3)c2)c2nccnc2c1` [Example 48, N-(4-Methanesulfonylpyridin-3-yl)-8-[3-(1H-1,2,3-triazol-4-yl)phenyl]quinoxalin-6-amine], the IC50 lay in the range of 10000 to 100000 nM.
Next, `Cc1cccc(-c2cc(Nc3cnccc3S(C)(=O)=O)cc3nccnc23)c1` [Example 51, N-(4-Methanesulfonylpyridin-3-yl)-8-(3-methylphenyl)quinoxalin-6-amine]: 1000 to 10000 nM; `CNc1ccc(S(C)(=O)=O)c(Nc2cc(-c3ccc4ccn(C)c4c3)c3nccnc3c2)c1` [Example 57, 4-Methanesulfonyl-N1-methyl-N3-[8-(1-methyl-1H-indol-6-yl)quinoxalin-6-yl]benzene-1,3-diamine]: 1 to 1000 nM.
With `CS(=O)(=O)c1ccncc1Nc1cc(-c2ccc3occ(CCl)c3c2)c2nccnc2c1` [Example 58, 8-[3-(Chloromethyl)-1-benzofuran-5-yl]-N-(4-methanesulfonylpyridin-3-yl)quinoxalin-6-amine] the figure was 10000 to 100000 nM.
Take `Cn1ccc2ccc(-c3cc(Nc4cnccc4S(C)(=O)=O)cc4nccnc34)c(F)c21` [Example 59, 8-(7-Fluoro-1-methyl-1H-indol-6-yl)-N-(4-methanesulfonylpyridin-3-yl)quinoxalin-6-amine]: the IC50 lay in the range of 1 to 1000 nM.
Consider `CS(=O)(=O)c1ccncc1Nc1cc(-c2ccc3nc[nH]c3c2)c2nccnc2c1` [Example 61, 8-(1H-1,3-Benzodiazol-5-yl)-N-(4-methanesulfonylpyridin-3-yl)quinoxalin-6-amine], for which the IC50 is 10000 to 100000 nM.
On to `CCc1cccc(-c2cc(Nc3cnccc3S(C)(=O)=O)cc3nccnc23)c1` [Example 65, 8-(3-Ethylphenyl)-N-(4-methanesulfonylpyridin-3-yl)quinoxalin-6-amine], for which the IC50 fell in the range of 1000 to 10000 nM.
Next, `Cc1ccc(N)c(-c2cc(Nc3cnccc3S(C)(=O)=O)cc3nccnc23)c1` [Example 66, 8-(2-Amino-5-methylphenyl)-N-(4-methanesulfonylpyridin-3-yl)quinoxalin-6-amine]: 1000 to 10000 nM.
With `Cc1ccc(O)c(-c2cc(Nc3cnccc3S(C)(=O)=O)cc3nccnc23)c1` [Example 67, 2-{7-[(4-Methanesulfonylpyridin-3-yl)amino]quinoxalin-5-yl}-4-methylphenol] the figure was 1000 to 10000 nM.
For the compound `Cn1ccc2ccc(-c3cc(Nc4cnccc4-c4nn[nH]n4)cc4nccnc34)cc21` [Example 68, 8-(1-Methyl-1H-indol-6-yl)-N-[4-(1H-1,2,3,4-tetrazol-5-yl)pyridin-3-yl]quinoxalin-6-amine], the IC50 lay within 1 to 1000 nM.
Next, `Cn1ccc2ccc(-c3cc(Nc4cnccc4Cl)cc4nccnc34)cc21` [Example 69, N-(4-Chloropyridin-3-yl)-8-(1-methyl-1H-indol-6-yl)quinoxalin-6-amine]: 1 to 1000 nM; `Cc1coc2ccc(-c3cc(Nc4c[n+]([O-])ccc4S(C)(=O)=O)cc4nccnc34)cc12` [Example 72, 4-Methanesulfonyl-3-{[8-(3-methyl-1-benzofuran-5-yl)quinoxalin-6-yl]amino}pyridin-1-ium-1-olate]: 1 to 1000 nM.
Take `Cn1ccc2cc(F)c(-c3cc(Nc4cnccc4S(C)(=O)=O)cc4nccnc34)cc21` [Example 73, 8-(5-Fluoro-1-methyl-1H-indol-6-yl)-N-(4-methanesulfonylpyridin-3-yl)quinoxalin-6-amine]: the IC50 was 1 to 1000 nM.
Consider `COc1ccc(C)cc1-c1cc(Nc2cnccc2S(C)(=O)=O)cc2nccnc12` [Example 74, N-(4-Methanesulfonylpyridin-3-yl)-8-(2-methoxy-5-methylphenyl)quinoxalin-6-amine], for which the IC50 lay within 1000 to 10000 nM.
Turning to `Cc1ccc(-c2cc(Nc3cnccc3S(C)(=O)=O)cc3nccnc23)cc1N` [Example 75, 8-(3-Amino-4-methylphenyl)-N-(4-methanesulfonylpyridin-3-yl)quinoxalin-6-amine], the IC50 is 1 to 1000 nM.
In the case of `Cn1ccc2ccc(-c3cc(Nc4ncccc4S(C)(=O)=O)cc4nccnc34)cc21` [Example 81, N-(3-Methanesulfonylpyridin-2-yl)-8-(1-methyl-1H-indol-6-yl)quinoxalin-6-amine], the IC50 was 1 to 1000 nM.
With `CC(=O)N1CCN(c2ccncc2Nc2cc(-c3ccc4ccn(C)c4c3)c3nccnc3c2)CC1` [Example 82, 1-[4-(3-{[8-(1-Methyl-1H-indol-6-yl)quinoxalin-6-yl]amino}pyridin-4-yl)piperazin-1-yl]ethan-1-one], the IC50 was 1 to 1000 nM.
In the case of `Cn1cnc(-c2ccncc2Nc2cc(-c3ccc4ccn(C)c4c3)c3nccnc3c2)c1` [Example 83, N-[4-(1-Methyl-1H-imidazol-4-yl)pyridin-3-yl]-8-(1-methyl-1H-indol-6-yl)quinoxalin-6-amine], the IC50 lay within 1 to 1000 nM.
With `Cn1ccc2ccc(-c3cc(Nc4cncc5c4OCCN5)cc4nccnc34)cc21` [Example 84, 8-(1-Methyl-1H-indol-6-yl)-N-{2H,3H,4H-pyrido[4,3-b][1,4]oxazin-8-yl}quinoxalin-6-amine] the figure was 1 to 1000 nM; with `Cn1ccc2ccc(-c3cc(Nc4c[n+]([O-])ccc4C#N)cc4nccnc34)cc21` [Example 90, 4-Cyano-3-{[8-(1-methyl-1H-indol-6-yl)quinoxalin-6-yl]amino}pyridin-1-ium-1-olate], 1000 to 10000 nM; with `CN(c1cc(-c2ccc3ccn(C)c3c2)c2nccnc2c1)c1cnccc1C#N` [Example 91, 3-{Methyl[8-(1-methyl-1H-indol-6-yl)quinoxalin-6-yl]amino}pyridine-4-carbonitrile], 1000 to 10000 nM.
With `Cn1nccc1-c1ccc(S(C)(=O)=O)c(Nc2cc(-c3ccc4ccn(C)c4c3)c3nccnc3c2)c1` [Example 93, N-[2-Methanesulfonyl-5-(1-methyl-1H-pyrazol-5-yl)phenyl]-8-(1-methyl-1H-indol-6-yl)quinoxalin-6-amine] the figure was 1000 to 10000 nM; with `Cn1ccc2ccc(-c3cc(Nc4cc(-c5ncco5)ccc4S(C)(=O)=O)cc4nccnc34)cc21` [Example 94, N-[2-Methanesulfonyl-5-(1,3-oxazol-2-yl)phenyl]-8-(1-methyl-1H-indol-6-yl)quinoxalin-6-amine], 1 to 1000 nM; with `CN(c1cc(-c2ccc3ccn(C)c3c2)c2nccnc2c1)c1cnccc1C(N)=O` [Example 95, 3-{Methyl[8-(1-methyl-1H-indol-6-yl)quinoxalin-6-yl]amino}pyridine-4-carboxamide], 1000 to 10000 nM.
For `Cn1ccc2ccc(-c3cc(Nc4cnccc4C(=O)Nc4ccccc4)cc4nccnc34)cc21` [Example 96, 3-{[8-(1-Methyl-1H-indol-6-yl)quinoxalin-6-yl]amino}-N-phenylpyridine-4-carboxamide], the IC50 lay in the range of 1 to 1000 nM.
Next, `Cc1coc2ccc(-c3cc(Nc4cc(N)ccc4S(C)(=O)=O)cc4nccnc34)cc12` [Example 102, 6-Methanesulfonyl-N1-[8-(3-methyl-1-benzofuran-5-yl)quinoxalin-6-yl]benzene-1,3-diamine]: 1 to 1000 nM; `Cc1coc2ccc(-c3cc(Nc4cc([N+](=O)[O-])ccc4S(C)(=O)=O)cc4nccnc34)cc12` [Example 103, N-(2-methanesulfonyl-5-nitrophenyl)-8-(3-methyl-1-benzofuran-5-yl)quinoxalin-6-amine]: 1000 to 10000 nM.
